Test results as given in article PMC3568925 (Biochemistry, 2013).

Target: BacD (Bacillus subtilis, UniProt P39641)
Assay: LC/MS and 1H-NMR of dipeptide product
Format: biochemical
Conditions: 1 mM substrate, 3 mM L-Ala, 3 mM ATP, 5 mM MgCl2, 20 uM BacD, 50 mM potassium phosphate pH 8.0, room temperature

BacD, sequence (P39641 whole entry): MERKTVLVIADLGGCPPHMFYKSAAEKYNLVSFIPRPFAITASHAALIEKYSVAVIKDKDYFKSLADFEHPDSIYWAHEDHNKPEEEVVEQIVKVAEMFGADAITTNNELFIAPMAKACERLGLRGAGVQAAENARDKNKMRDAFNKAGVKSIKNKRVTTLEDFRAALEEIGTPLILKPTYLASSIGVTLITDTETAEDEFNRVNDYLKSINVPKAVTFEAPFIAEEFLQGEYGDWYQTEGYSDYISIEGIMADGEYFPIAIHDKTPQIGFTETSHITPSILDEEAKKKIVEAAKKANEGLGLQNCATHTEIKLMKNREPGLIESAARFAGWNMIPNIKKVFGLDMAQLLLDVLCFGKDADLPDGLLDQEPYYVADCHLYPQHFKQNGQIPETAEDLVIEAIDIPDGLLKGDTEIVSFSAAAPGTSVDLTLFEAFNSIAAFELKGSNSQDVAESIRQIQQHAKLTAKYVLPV

With `N[C@@H](C[C@H]1C=C[C@H](O)CC1)C(=O)O` [4S-H4Tyr] the “LC/MS and 1H-NMR of dipeptide product” value was “BacD would ligate L-Ala onto the N-terminus of both the 4S and 4R diastereomers”.
